Data on two substances can be found in patent US9700609B2, “Compositions for treatment and/or prevention of autoimmune disorders” (University of Florida Research Foundation, Incorporated, priority 2013, dated 2017).

One assay deals with BBDP rats. The note with it: cited from earlier work; for Th17 bias: BBDP rat and NOD mouse (Lau et al. (2011)); for T1D resistance: oral transfer to BBDP rats (Valladares et al. (2010)).
Assay [1] deals with CD11b+ and CD11c+ leukocytes (APC). The assay is described as follows: APC frequency and MHC expression by flow cytometry in splenocyte cultures with graded doses of bacteria and anti-CD3. It counts as cell-based, NOD and NOR mice. Here is the method: FIG. 8. LjN6.2, but not LrTD1, increases APC activation in NOD mice. Spleenocytes derived from NOD or NOR mice, were cultured with graded doses of LjN6.2 or LrTD1 in the presence of anti-CD3. Following 48 hours incubation, samples were analyzed through flow cytometry for APC activation. A) Histograms showing changes in CD11b and CD11c frequencies upon treatment of NOD in vitro leukocyte cultures with LjN6.2 (red), LrTD1(black) or CD3 (shaded). B) Graphs showing percentage of CD11b^+ and CD11c^+ leukocytes in NOD and NOR cells cultures incubated with graded doses of bacteria as indicated. C) Graphs showing changes in MHC expression levels on CD11c^+ and CD11b^+ APC upon treatment with graded doses of LjN6.2 (shaded square) or LrTD1 (open square).
(§1) Whole lymphocytes or BMOC were incubated with 4 μg/mL anti-CD3, (LjN6.2) and/or L. reuteri TD1 (LrTD1) at various concentrations as indicated. At 48 hours, 100 μL of supernatant was removed from each well and replenished with fresh medium. Cytokine ELISAs were subsequently performed on harvested supernatants. ELISA kits were purchased from BD Bioscience: anti-IFNγ (555138; BD Biosciences, San Diego, Calif.), and anti-IL6 (555240). Capture mAb (555068) and detection mAb (555067) for IL17 were purchased from BD Biosciences. Cytokine standard for IL-17A was purchased from eBioscience (14-8171-80).
(§2) Single cell suspensions of pooled LN (axillary, inguinal, brachial, mesenteric, and superficial cervical), and spleen were stained with the following mAbs for flow-cytometric analysis: anti-CD4-Pacific Blue (RM4-5), anti-MHC I-FitC (KH95), anti-CD11c-PE (N418; eBioscience, San Diego, Calif.), anti-B220-APC (RA3-6B2, eBioscience), anti-CD11b-A700 (M1/70), anti-CD11b-FitC (M1/70, eBioscience), […] (N418, eBioscience), anti CD86-A700 (GL1), anti-CD80-PE (16-10A1), DEC 205-APC (205yekta) and anti-MHC II-FC (39-10-8) mAb. All flow cytometry antibodies were purchased from BD PharMingen unless otherwise stated. 50,000-100,000 live events were collected on a LSRII (BD PharMingen) and analyzed using FlowJo software (Tree Star, San Carlos, Calif.). The absolute numbers of cells recovered from various organs was determined by multiplying the total number of cells isolated from various tissues by the percentage of total cells bearing a lineage specific marker denoted by flow cytometry.
For orientation: In flow cytometry, cells or beads pass a laser one at a time.

For a further assay, the system named is BMDC. Put plainly: IL6 production by BMDC incubated with LjN6.2 or lysed bacterial components, ELISA. In kind it is cell-based, NOD mice. The conditions noted are these: NOD BMDC matured with GM-CSF. Here is the method:
FIG. 9. Enhanced DC maturation mediated by LjN6.2 surface antigens. Spleenocytes derived from NOD or NOR mice, were cultured with graded doses of LjN6.2 or LrTD1in the presence of anti-CD3, as in FIG. 4. Subsequent to incubation, samples were analyzed for expression of the endocytic marker, DEC 205. A) Overlay histograms showing changes in DEC205 frequency on CD11c^+ DC upon treatment of NOD cultures with varying doses of LjN6.2 and LrTD1. B) Graphical representations of DEC205 expression on CD11c^+ DC present within NOD and NOR cultures upon incubation with varying doses of LjN6.2 and LrTD1. C) Maturing DC (BMDC), derived from NOD mice were matured in the presence of GM-CSF, followed by incubation with LjN6.2 or beadbeater lysed LjN6.2 bacterial cellular components. Left, graph showing IL6 production by BMDC incubated with either intact LjN6.2, or fractional equivalents of nonviable lysed LjN6.2 components defined by ultracentrifugation as membrane (pellet components) or cytosolic (soluble) components. […]
Bacterial cells were incubated with 0.1 mm glass beads and homogenized through the use of a beadbeater (Qbiogene) according to manufacturers' instructions. […] Efficiency of bacterial disruption was assessed through the culture of bacterial lysates on agar plates under anaerobic conditions.
For orientation: ELISA stands for enzyme-linked immunosorbent assay.

For another assay, the system named is T lymphocytes. Put plainly: IFNγ production and IFNγ+/IL17+ T lymphocytes after bacterial treatment. In kind it is cell-based. Here is the method: FIG. 14. L. johnsonii modulates adaptive immune response. […] Also, L. johnsonii increased the percentages of IFNγ^+ and IL17^+ T lymphocytes in a dose dependent manner.
as §1

For another assay, the system named is DEC205 on CD11c+ DC. Put plainly: DEC205 expression on CD11c+ DC in splenocyte cultures, flow cytometry. The note with it: both NOD and NOR CD11c+ DC, dose dependent. It counts as cell-based, NOD and NOR mice. Here is the method:
FIG. 9. Enhanced DC maturation mediated by LjN6.2 surface antigens. Spleenocytes derived from NOD or NOR mice, were cultured with graded doses of LjN6.2 or LrTD1in the presence of anti-CD3, as in FIG. 4. Subsequent to incubation, samples were analyzed for expression of the endocytic marker, DEC 205. A) Overlay histograms showing changes in DEC205 frequency on CD11c^+ DC upon treatment of NOD cultures with varying doses of LjN6.2 and LrTD1. B) Graphical representations of DEC205 expression on CD11c^+ DC present within NOD and NOR cultures upon incubation with varying doses of LjN6.2 and LrTD1. […]
as §2, with “All flow cytometry antibodies were purchased from BD PharMingen unless otherwise stated.” left out, “The absolute numbers of cells recovered from various organs was determined by multiplying the total number of cells isolated from various tissues by the percentage of total cells bearing a lineage specific marker denoted by flow cytometry.” left out

For a further assay, the system named is NOD mice. Put plainly: Systemic Th17 bias after oral feeding or pulsed DC vaccination. It counts as in vivo. The note with it: oral feeding. The text has this:
In apparent contrast, T1D onset can also be inhibited through the generation of Foxp3^+ regulatory T cells which can be mediated by tolerogenic, immature DC. […] Therefore, restoration of DC function by oral administration of specific bacteria, or administration of a vaccine composed of gut flora modified DC, can be used to restore immune tolerance.

Assay [2] relates to LN cells (CD11b+ leukocytes). The assay is described as follows: CD11b and CD40 expression in pooled LN cells cultured with bacteria, flow cytometry. It counts as cell-based, NOD mice. The conditions noted are these: NOD pooled LN cells, 48 hour incubation. Here is the method: FIG. 12. LjN6.2 but not LrTD1 up-regulates expression of CD11b. LN cells (brachial, inguinal, cervical and mesenteric) were isolated from NOD mice and pooled, followed by culturing in the presence or absence of bacteria. After 48 hour incubation, supernatants were removed and cells were analyzed by flow cytometry. Please note that concentration 1 (Lj1 and Lr1) is 3 fold higher than concentration 2 (Lj2 and Lr2).
FIG. 13. […] LN cells (brachial, inguinal, cervical and mesenteric) were isolated from NOD mice and pooled followed by culture in the presence or absence of bacteria. After 48 hour incubation, supernatants were removed and cells were analyzed by flow cytometry. CD11b^+ cells were first gated and then further analyzed for CD40 expression. Please note that concentration 1 (Lj1 and Lr1) is 3 fold higher than concentration 2 (Lj2 and Lr2).
Single cell suspensions of pooled LN (axillary, inguinal, brachial, mesenteric, and superficial cervical), and spleen were stained with the following mAbs for flow-cytometric analysis: anti-CD4-Pacific Blue (RM4-5), anti-MHC I-FitC (KH95), anti-CD11c-PE (N418; eBioscience, San Diego, Calif.), anti-B220-APC (RA3-6B2, eBioscience), anti-CD11b-A700 (M1/70), anti-CD11b-FitC (M1/70, eBioscience), […] (N418, eBioscience), anti CD86-A700 (GL1), anti-CD80-PE (16-10A1), DEC 205-APC (205yekta) and anti-MHC II-FC (39-10-8) mAb. […]

Take L. reuteri TD1 [LrTD1]: in the assay with BBDP rats, the Th17 bias entry is given as “nor mediated a Th17 bias” and the T1D resistance entry was “neither conferred T1D resistance”. Moreover, the “modulation of MHC” value in assay [1] (CD11c+ and CD11b+ APC, in contrast to LjN6.2) is listed as “reduced, or negligible”.
As for Lactobacillus johnsonii N6.2 [LjN6.2], the “IL6 production by BMDC” value with BMDC is “copious amounts”. Further, the IFNγ production entry in the assay on T lymphocytes (compared with L. reuteri) is on record as “more profoundly than L. reuteri”. In the assay with T lymphocytes (dose dependent), the “percentages of IFNγ+ and IL17+ T lymphocytes” value is given as “increased”. In addition, in the assay on DEC205 on CD11c+ DC, the “DEC205 expression on CD11c+ DC” value is “down-regulation”. Moreover, the “systemic Th17 bias” value in the assay with NOD mice was “sufficient to mediate a systemic Th17 bias”. Moreover, in the assay on BBDP rats, the Th17 bias result is given as “APC dependent, Th17 bias observed” and the T1D resistance result is recorded as “sufficient to confer T1D resistance”. Moreover, in assay [2], the CD11b expression entry is given as “up-regulates” and the “CD40 expression on CD11b+ leukocytes” value was “up-regulated”. Besides, in assay [1] (NOD derived CD11c+ DC, dose dependent), the “levels of MHC classes I and II on CD11c+ DC” value is on record as “upregulated”. The “frequency of both CD11b+ and CD11c+ leukocytes” value in assay [1] (NOD derived primary cell cultures, graded doses, anti-CD3, 48 hours) is on record as “consistently up-regulated”. Also, in assay [1] (NOR cultures, graded doses, anti-CD3, 48 hours), the “frequency of CD11b+ and CD11c+ leukocytes” value is recorded as “only moderately increased”. Further, in assay [1] (NOR derived CD11c+ DC), the “MHCI and MHCII expression on CD11c+ DC” value is “failed to specifically increase”. Besides, in assay [1] (both NOD and NOR cultures), the “CD11b+MHCIhi leukocytes” value is on record as “decrease” and the “frequency of CD11b+MHCIIhi leukocytes” value is listed as “increase”.
